Measurements taken from ChEMBL document CHEMBL1667813, “Difluoroethylamines as an amide isostere in inhibitors of cathepsin K” (Bioorg Med Chem Lett, 2011).

Assays:
Cathepsin K = Cathepsin K (Homo sapiens, UniProt P43235); assay: Inhibition of humanized rabbit cathepsin K
Homo sapiens [1] = species on record: Homo sapiens; assay: Selectivity ratio of IC50 for human cathepsin B to IC50 for human cathepsin K
Homo sapiens [2] = species on record: Homo sapiens; assay: Selectivity ratio of IC50 for human cathepsin F to IC50 for human cathepsin K
Homo sapiens [3] = species on record: Homo sapiens; assay: Selectivity ratio of IC50 for human cathepsin L to IC50 for human cathepsin K
Homo sapiens [4] = species on record: Homo sapiens; assay: Selectivity ratio of IC50 for human cathepsin S to IC50 for human cathepsin K
[5] = Ratio of product of IC50 for rabbit bone resorption and IC50 for humanized rabbit cathepsin K to IC50 for rabbit cathepsin K
[6] = Aqueous equilibrium solubility of the compound in water; type: physicochemical
[7] = Lipophilicity, log D of the compound; type: physicochemical; settings: octanol/water
[8] = Dissociation constant, pKa of the compound; type: physicochemical
[9] = Oral bioavailability in rat at 2 mg/kg, iv; type: ADME, organism-based; settings: in vivo
[10] = Half life in rat at 10 mg/kg, po or 2 mg/kg, iv; type: ADME, organism-based; settings: in vivo
[11] = Oral bioavailability in dog at 1 mg/kg, iv; type: ADME, organism-based, Canis lupus familiaris; settings: in vivo
[12] = Half life in dog at 5 mg/kg, po or 1 mg/kg, iv; type: ADME, organism-based, Canis lupus familiaris; settings: in vivo

| SMILES | IC50 (Cathepsin K) [nM] | Ratio IC50 (Homo sapiens [1]) | Ratio IC50 (Homo sapiens [2]) | Ratio IC50 (Homo sapiens [3]) | Ratio IC50 (Homo sapiens [4]) | IC50 [5] [nM] | solubility thermodynamic [6] [µg/mL] | logD [7] | pKa [8] | bioavailability [9] [%] | half-life [10] [h] | bioavailability [11] [%] | half-life [12] [h] |
| --- | --- | --- | --- | --- | --- | --- | --- | --- | --- | --- | --- | --- | --- |
| CC(C)C[C@H](N[C@@H](c1ccc(-c2ccc(S(C)(=O)=O)cc2)cc1)C(F)(F)F)C(=O)NCC#N | 0.2 | 26200 | 480 | 1320 | 890 | 3 | – | – | – | – | – | – | – |
| CC(C)(F)C[C@H](N[C@@H](c1ccc(-c2ccc(C3(C(N)=O)CC3)cc2F)cc1)C(F)F)C(=O)NC1(C#N)CC1 | 0.3 | 7230 | 2340 | 12700 | 2880 | 4 | – | – | – | – | – | – | – |
| CC(C)C[C@H](N[C@@H](c1ccc(-c2ccc(S(C)(=O)=O)cc2)cc1)C(F)(F)F)C(=O)NC1(C#N)CC1 | 0.3 | 23600 | 370 | 1390 | 809 | 3 | < 10 | 3.53 | < 2 | 4 | 2.6 | – | – |
| CC(C)C[C@H](N[C@@H](c1ccc(-c2ccc(S(C)(=O)=O)cc2)cc1)C(F)F)C(=O)NC1(C#N)CC1 | 0.8 | > 11900 | 645 | 894 | 1140 | 10 | < 10 | 0.11 | 2.7 | 100 | 0.8 | – | – |
| CC(C)(F)C[C@H](N[C@@H](c1ccc(-c2ccc(C3(C(N)=O)CC3)cc2F)cc1)C(F)(F)F)C(=O)NC1(C#N)CC1 | 0.3 | 4400 | 1380 | 9370 | 1200 | 2 | – | – | – | – | – | – | – |
| CC(C)C[C@H](N[C@@H](c1ccc(-c2ccc(C(O)C(F)(F)F)cc2)cc1)C(F)F)C(=O)NC1(C#N)CC1 (stereo not given in full) | 1.9 | > 5180 | 126 | 785 | 813 | 32 | – | – | – | – | – | – | – |
| CC(C)(F)C[C@H](N[C@@H](c1ccc(-c2ccc(S(C)(=O)=O)cc2)cc1)C(F)F)C(=O)NC1(C#N)CC1 | 1 | 2300 | 1920 | 6330 | 210 | 9 | – | – | – | 22 | 3.8 | 23 | 35 |
| CC(C)(F)C[C@H](N[C@@H](c1ccc(-c2ccc(S(C)(=O)=O)cc2)cc1)C(F)(F)F)C(=O)NC1(C#N)CC1 [ODANACATIB] | 0.2 | 5170 | 3980 | 15000 | 300 | 5 | – | – | – | 8 | – | 6 | – |
| CC(C)C[C@H](N[C@@H](c1ccc(-c2ccc(C(O)C(F)(F)F)cc2)cc1)C(F)(F)F)C(=O)NC1(C#N)CC1 (stereo not given in full) | 1.6 | 5980 | – | 506 | 311 | 21 | – | – | – | – | – | – | – |
| CC(C)C[C@H](N[C@@H](c1ccc(-c2ccc(S(C)(=O)=O)cc2)cc1)C(F)F)C(=O)NCC#N | 0.3 | > 32600 | 822 | 869 | 2000 | 15 | – | – | – | – | – | – | – |
